US5328902A, “7-(substituted)-9-[(substituted glycyl)amido]-6-demethyl-6-deoxytetracyclines” (American Cyanamid Co., priority 1992, dated 1994)
≈ marks a conversion by molar mass, not a printed value.

Assays:
Type in all cases: cell-based
S. aureus IVES 2943 = test: MIC, agar dilution; conditions: S. aureus IVES 2943
[1] = system: Ps. acruginosa ATCC 27853; test: MIC, agar dilution; conditions: Ps. acruginosa ATCC 27853
S. mariescens FPOR 8733 = test: MIC, agar dilution
S. aureus UBMS 90-3 = test: MIC, agar dilution; conditions: S. aureus UBMS 90-3
E. coli J2175 = test: MIC, agar dilution; conditions: E. coli J2175
[2] = system: S. aureus UBMS 90-2 Tet M; test: microbe, parasite or virus in culture; conditions: S. aureus UBMS 90-2 Tet M
[3] = system: E. coli MC 4100 Tet sens.; test: MIC, agar dilution
E. faecalis ATCC 29212 = test: MIC, agar dilution; conditions: E. faecalis ATCC 29212
S. aureus ROSE (MP) = test: MIC, agar dilution; conditions: S. aureus ROSE (MP)
E. coli BAJ9003 IMP MUT = test: microbe, parasite or virus in culture; conditions: E. coli BAJ9003 IMP MUT
[4] = system: S. hemolyticus AVHAH 88-3; test: MIC, agar dilution; conditions: S. hemolyticus AVHAH 88-3
S. aureus SMITH (MP) = test: MIC, agar dilution; conditions: S. aureus SMITH (MP)
S. aureus NEMC 8769 = test: MIC, agar dilution; conditions: S. aureus NEMC 8769
E. coli J3272 Tet C = test: microbe, parasite or virus in culture; conditions: E. coli J3272 Tet C
S. aureus UBMS 88-4 = test: MIC, agar dilution; conditions: S. aureus UBMS 88-4
E. coli #311 (MP) = test: MIC, agar dilution; conditions: E. coli #311 (MP)
[5] = system: S. aureus UBMS 88-7 Tet K; test: microbe, parasite or virus in culture; conditions: S. aureus UBMS 88-7 Tet K
E. coli J3272 Tet D = test: microbe, parasite or virus in culture; conditions: E. coli J3272 Tet D
E. coli UBMS 90-5 = test: MIC, agar dilution
E. coli UBMS 88-1 Tet B = test: microbe, parasite or virus in culture; conditions: E. coli UBMS 88-1 Tet B; 18 hours at 35° C.
E. coli ATCC 25922 = test: MIC, agar dilution; conditions: E. coli ATCC 25922
E. coli UBMS 89-1 Tet M = test: microbe, parasite or virus in culture; conditions: E. coli UBMS 89-1 Tet M
[6] = system: X. maltophilia NEMC 87210; test: MIC, agar dilution
Enterococcus 12201 = test: MIC, agar dilution; conditions: Enterococcus 12201
[7] = system: S. aureus UBMS 90-1 Tet M; test: microbe, parasite or virus in culture; conditions: S. aureus UBMS 90-1 Tet M
[8] = system: E. coli UBMS 89-2 Tet sens.; test: MIC, agar dilution; conditions: E. coli UBMS 89-2 Tet sens.
[9] = system: E. coli MC 4100 TNIOC Tet B; test: microbe, parasite or virus in culture; conditions: E. coli MC 4100 TNIOC Tet B
E. coli UBMS 90-4 Tet M = test: microbe, parasite or virus in culture; conditions: E. coli UBMS 90-4 Tet M
S. aureus IVES 1 983 = test: MIC, agar dilution; conditions: S. aureus IVES 1 983
S. aureus ATCC 29213 = test: MIC, agar dilution; conditions: S. aureus ATCC 29213
[10] = system: S. aureus UBMS 88-5 Tet M; test: microbe, parasite or virus in culture; conditions: S. aureus UBMS 88-5 Tet M
E. coli PRP1 Tet A = test: microbe, parasite or virus in culture; conditions: E. coli PRP1 Tet A

Row | Structure (SMILES) | MIC (S. aureus IVES 2943) [µg/mL] | MIC [1] [µg/mL] | MIC (S. mariescens FPOR 8733) [µg/mL] | MIC (S. aureus UBMS 90-3) [µg/mL] | MIC (E. coli J2175) [µg/mL] | MIC [2] [µg/mL] | MIC [3] [µg/mL] | MIC (E. faecalis ATCC 29212) [µg/mL] | MIC (S. aureus ROSE (MP)) [µg/mL] | MIC (E. coli BAJ9003 IMP MUT) [µg/mL] | MIC [4] [µg/mL] | MIC (S. aureus SMITH (MP)) [µg/mL] | MIC (S. aureus NEMC 8769) [µg/mL] | MIC (E. coli J3272 Tet C) [µg/mL] | MIC (S. aureus UBMS 88-4) [µg/mL] | MIC (E. coli #311 (MP)) [µg/mL] | MIC [5] [µg/mL] | MIC (E. coli J3272 Tet D) [µg/mL] | MIC (E. coli UBMS 90-5) [µg/mL] | MIC (E. coli UBMS 88-1 Tet B) [µg/mL] | other results
1 | CN(C)c1cc(NC(=O)CNCCO)c(O)c2c1CC1CC3C(N(C)C)C(O)=C(C(N)=O)C(=O)C3(O)C(O)=C1C2=O.Cl (stereo not drawn) [P, [4S-(4alpha,12aalpha)]-4,7-Bis(dimethylamino)-1.4,4a,5,5a,6,11,12a-octahydro-3,10, 12,12a-tetrahydroxy-9-[[[(2-hydroxyethyl)amino]acetyl]amino]-1,11-dioxo-2-naphthacenecarboxamide monohydrochloride] | > 32 | > 32 | > 32 | 8 | 32 | 16 | 4 | 4 | > 32 | 2 | 32 | 4 | 4 | > 32 | 8 | 16 | 32 | 16 | 32 | > 32 | MIC (E. coli ATCC 25922): 16 µg/mL; MIC (E. coli UBMS 89-1 Tet M): > 32 µg/mL; MIC [6]: > 32 µg/mL; MIC (Enterococcus 12201): 8 µg/mL; MIC [7]: 32 µg/mL; MIC [8]: > 32 µg/mL; MIC [9]: > 32 µg/mL; MIC (E. coli UBMS 90-4 Tet M): 32 µg/mL; MIC (S. aureus IVES 1 983): > 32 µg/mL; MIC (S. aureus ATCC 29213): 8 µg/mL; MIC [10]: 32 µg/mL; MIC (E. coli PRP1 Tet A): > 32 µg/mL
2 | CN(CCO)CC(=O)Nc1cc(N(C)C)c2c(c1O)C(=O)C1=C(O)[C@]3(O)C(=O)C(C(N)=O)=C(O)[C@@H](N(C)C)C3CC1C2 (stereo partly shown) [Q] | > 32 | > 32 | 16 (≈ 27.2 µM) | 8 (≈ 13.6 µM) | 32 (≈ 54.5 µM) | 16 (≈ 27.2 µM) | 4 (≈ 6.81 µM) | 4 (≈ 6.81 µM) | > 32 | 2 (≈ 3.4 µM) | 16 (≈ 27.2 µM) | 8 (≈ 13.6 µM) | 8 (≈ 13.6 µM) | > 32 | 8 (≈ 13.6 µM) | 32 (≈ 54.5 µM) | 32 (≈ 54.5 µM) | 32 (≈ 54.5 µM) | 32 (≈ 54.5 µM) | 32 (≈ 54.5 µM) | MIC (E. coli ATCC 25922): 32 µg/mL (≈ 54.5 µM); MIC (E. coli UBMS 89-1 Tet M): 32 µg/mL (≈ 54.5 µM); MIC [6]: 8 µg/mL (≈ 13.6 µM); MIC (Enterococcus 12201): 4 µg/mL (≈ 6.81 µM); MIC [7]: 32 µg/mL (≈ 54.5 µM); MIC [8]: 32 µg/mL (≈ 54.5 µM); MIC [9]: > 32 µg/mL; MIC (E. coli UBMS 90-4 Tet M): 16 µg/mL (≈ 27.2 µM); MIC (S. aureus IVES 1 983): > 32 µg/mL; MIC (S. aureus ATCC 29213): 16 µg/mL (≈ 27.2 µM); MIC [10]: 16 µg/mL (≈ 27.2 µM); MIC (E. coli PRP1 Tet A): > 32 µg/mL
3 | C#CCN(C)CC(=O)Nc1cc(N(C)C)c2c(c1O)C(=O)C1=C(O)[C@]3(O)C(=O)C(C(N)=O)=C(O)[C@@H](N(C)C)[C@@H]3C[C@@H]1C2 [V, [4S-(4alpha,12aalpha)]-4,7-Bis(dimethylamino)-1,4,4a,5,5a,6,11,12a-octahydro-3,10, 12,12a-tetrahydroxy-9-[[[methyl-2-propynylamino]acetyl]amino]-1,11-dioxo-2-naphthacenecarboxamide] | > 32 | > 32 | > 32 | 4 (≈ 6.88 µM) | > 32 | 8 (≈ 13.8 µM) | 32 (≈ 55 µM) | 4 (≈ 6.88 µM) | > 32 | 4 (≈ 6.88 µM) | 32 (≈ 55 µM) | 4 (≈ 6.88 µM) | 4 (≈ 6.88 µM) | > 32 | 4 (≈ 6.88 µM) | > 32 | 32 (≈ 55 µM) | > 32 | > 32 | > 32 | MIC (E. coli ATCC 25922): > 32 µg/mL; MIC (E. coli UBMS 89-1 Tet M): > 32 µg/mL; MIC [6]: 32 µg/mL (≈ 55 µM); MIC (Enterococcus 12201): 8 µg/mL (≈ 13.8 µM); MIC [7]: 16 µg/mL (≈ 27.5 µM); MIC [8]: > 32 µg/mL; MIC [9]: > 32 µg/mL; MIC (E. coli UBMS 90-4 Tet M): > 32 µg/mL; MIC (S. aureus IVES 1 983): > 32 µg/mL; MIC (S. aureus ATCC 29213): 4 µg/mL (≈ 6.88 µM); MIC [10]: 8 µg/mL (≈ 13.8 µM); MIC (E. coli PRP1 Tet A): > 32 µg/mL
4 | CN(C)c1cc(NC(=O)CNN2CCCCC2)c(O)c2c1CC1CC3C(N(C)C)C(O)=C(C(N)=O)C(=O)C3(O)C(O)=C1C2=O (stereo not drawn) [W, [4S-(4alpha,12aalpha)]-4,7-Bis(dimethylamino)-1,4,4a,5,5a,6,11,12a-octahydro-3,10, 12,12a-tetrahydroxy-hydroxy-1,11-dioxo-9[[(1-piperidinylamino)acetyl]amino]-2naphthacenecarboxamide] | > 32 | > 32 | > 32 | 16 (≈ 26.1 µM) | > 32 | > 32 | 32 (≈ 52.2 µM) | > 32 | > 32 | 16 (≈ 26.1 µM) | > 32 | 16 (≈ 26.1 µM) | > 32 | > 32 | > 32 | > 32 | > 32 | > 32 | > 32 | > 32 | MIC (E. coli ATCC 25922): > 32 µg/mL; MIC (E. coli UBMS 89-1 Tet M): > 32 µg/mL; MIC [6]: > 32 µg/mL; MIC (Enterococcus 12201): > 32 µg/mL; MIC [7]: > 32 µg/mL; MIC [8]: > 32 µg/mL; MIC [9]: > 32 µg/mL; MIC (E. coli UBMS 90-4 Tet M): > 32 µg/mL; MIC (S. aureus IVES 1 983): > 32 µg/mL; MIC (S. aureus ATCC 29213): 32 µg/mL (≈ 52.2 µM); MIC [10]: > 32 µg/mL; MIC (E. coli PRP1 Tet A): > 32 µg/mL
5 | CN(C)c1cc(NC(=O)CNOCc2ccccc2)c(O)c2c1C[C@H]1C[C@H]3[C@H](N(C)C)C(O)=C(C(N)=O)C(=O)[C@@]3(O)C(O)=C1C2=O [X, [4S-(4-alpha,12aalpha)]-4,7-Bis(dimethylamino)-1,4,4a,5,5a,6,11,12a-octahydro-3,10, 12,12a-tetrahydroxy-1,11-dioxo-9-[[[(phenylmethoxy)amino]acetyl]amino]-2-naphthacenecarboxamide] | 8 (≈ 12.6 µM) | > 32 | > 32 | 1 (≈ 1.57 µM) | > 32 | 2 (≈ 3.15 µM) | 4 (≈ 6.29 µM) | 1 (≈ 1.57 µM) | 16 (≈ 25.2 µM) | 1 (≈ 1.57 µM) | 4 (≈ 6.29 µM) | 0.5 (≈ 0.787 µM) | 1 (≈ 1.57 µM) | > 32 | 1 (≈ 1.57 µM) | 16 (≈ 25.2 µM) | 4 (≈ 6.29 µM) | 16 (≈ 25.2 µM) | > 32 | > 32 | MIC (E. coli ATCC 25922): 16 µg/mL (≈ 25.2 µM); MIC (E. coli UBMS 89-1 Tet M): 16 µg/mL (≈ 25.2 µM); MIC [6]: 16 µg/mL (≈ 25.2 µM); MIC (Enterococcus 12201): 4 µg/mL (≈ 6.29 µM); MIC [7]: 2 µg/mL (≈ 3.15 µM); MIC [8]: > 32 µg/mL; MIC [9]: > 32 µg/mL; MIC (E. coli UBMS 90-4 Tet M): > 32 µg/mL; MIC (S. aureus IVES 1 983): 8 µg/mL (≈ 12.6 µM); MIC (S. aureus ATCC 29213): 1 µg/mL (≈ 1.57 µM); MIC [10]: 2 µg/mL (≈ 3.15 µM); MIC (E. coli PRP1 Tet A): > 32 µg/mL
